Source: patent US8778941B2, “TRPM8 antagonists and their use in treatments” (AMGEN Inc., priority 2011, dated 2014)

biological target: T1, human TRPM8 (Homo sapiens, UniProt Q7Z2W7); test: Luminescence readout assay for measuring intracellular calcium (aequorin), hTRPM8 antagonism; type: cell-based; conditions: CHO cell line expressing human TRPM8 and aequorin; activation by icilin, L-menthol or cold buffer (table does not say which)
T1 construct: expressed in transfected cells; host or cells: Chinese hamster ovary (CHO) cells, T-REx tetracycline-inducible expression system (Invitrogen), co-transfected with pcDNA3.1 jellyfish aequorin
T1 sequence (Q7Z2W7 whole entry): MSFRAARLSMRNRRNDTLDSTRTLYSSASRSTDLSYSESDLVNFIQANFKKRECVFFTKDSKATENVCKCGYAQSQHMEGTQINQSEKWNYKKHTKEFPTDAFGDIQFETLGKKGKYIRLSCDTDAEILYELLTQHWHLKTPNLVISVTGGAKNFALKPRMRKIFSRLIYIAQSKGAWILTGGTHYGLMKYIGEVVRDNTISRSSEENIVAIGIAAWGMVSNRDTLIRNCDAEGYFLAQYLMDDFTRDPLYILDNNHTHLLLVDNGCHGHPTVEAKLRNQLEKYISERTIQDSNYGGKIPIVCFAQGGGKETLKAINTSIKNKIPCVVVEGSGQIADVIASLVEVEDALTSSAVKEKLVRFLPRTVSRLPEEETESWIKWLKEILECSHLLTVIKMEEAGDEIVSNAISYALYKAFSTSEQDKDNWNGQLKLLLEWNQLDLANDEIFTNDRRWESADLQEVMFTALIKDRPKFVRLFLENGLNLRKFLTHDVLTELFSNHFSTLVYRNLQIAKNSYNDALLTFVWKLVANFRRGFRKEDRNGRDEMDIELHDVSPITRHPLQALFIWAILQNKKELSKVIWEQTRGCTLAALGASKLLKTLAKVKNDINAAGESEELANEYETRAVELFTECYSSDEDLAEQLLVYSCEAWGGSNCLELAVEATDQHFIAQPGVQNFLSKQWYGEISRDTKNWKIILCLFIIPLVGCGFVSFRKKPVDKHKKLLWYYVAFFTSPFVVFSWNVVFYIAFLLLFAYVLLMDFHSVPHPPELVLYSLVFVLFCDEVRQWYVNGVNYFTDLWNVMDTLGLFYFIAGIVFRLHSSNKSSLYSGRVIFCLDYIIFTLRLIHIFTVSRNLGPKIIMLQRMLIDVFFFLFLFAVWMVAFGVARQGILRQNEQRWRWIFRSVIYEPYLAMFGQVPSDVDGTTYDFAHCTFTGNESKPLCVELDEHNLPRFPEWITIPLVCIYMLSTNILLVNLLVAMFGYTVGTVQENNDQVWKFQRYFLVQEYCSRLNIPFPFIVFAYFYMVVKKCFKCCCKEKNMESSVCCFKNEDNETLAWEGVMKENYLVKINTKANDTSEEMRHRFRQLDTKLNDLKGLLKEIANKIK

Compound | IC50 [nM]
O=C(Nc1cccnc1)N[C@@H](c1ccc(C(F)(F)F)cc1)c1ccccc1Br [Example 115, (S)-1-((2-bromophenyl) (4-(trifluoro-methyl)-phenyl)-methyl)-3-(pyridin-3-yl)-urea 2,2,2-trifluoro-acetate (2,2,2-trifluoro-acetate)] | 154
O=C(Nc1cc(Cl)nc(Cl)c1)N[C@@H](c1ccc(C(F)(F)F)cc1)c1ncccc1C(F)(F)F [Example 76, (S)-1-(2,6-dichloropyridin-4-yl)-3-((4-(trifluoro-methyl)-phenyl)(3-(trifluoro-methyl)-pyridin-2-yl)-methyl)urea (2,2,2-trifluoro-acetate)] | 294
CS(=O)(=O)c1cccc(NC(=O)N[C@@H](c2ccc(C(F)(F)F)cc2)c2ncccc2C(F)(F)F)c1 [Example 53, (S)-1-(3-(methylsulfonyl)phenyl)-3-((4-(trifluoro-methyl)-phenyl)(3-(trifluoro-methyl)-pyridin-2-yl)-methyl)urea] | 50
O=C(Nc1cccnc1)NC(c1ccc(F)c(C(F)(F)F)c1)c1ncccc1C(F)(F)F (stereo not drawn) [Example 21, 1-((4-fluoro-3-(trifluoro-methyl)-phenyl)(3-(trifluoro-methyl)-pyridin-2-yl)-methyl)-3-(pyridin-3-yl)-urea (2,2,2-trifluoro-acetate)] | 178
CCOC(=O)CCNC(=O)N[C@@H](c1ccc(C(F)(F)F)cc1)c1ncccc1C(F)(F)F [Example 66, (S)-ethyl 3-(3-((4-(trifluoro-methyl)-phenyl)(3-(trifluoro-methyl)-pyridin-2-yl)-methyl)-ureido)-propanoate (2,2,2-trifluoro-acetate)] | 905
O=C(NC(=O)c1ccccc1)N[C@@H](c1ccc(C(F)(F)F)cc1)c1ncccc1C(F)(F)F [Example 67, (S)-N-((4-(trifluoro-methyl)-phenyl)(3-(trifluoro-methyl)-pyridin-2-yl)-methylcarbamoyl) benzamide (2,2,2-trifluoro-acetate)] | 352
CCOC(=O)NC(=O)N[C@@H](c1ccc(C(F)(F)F)cc1)c1ncccc1C(F)(F)F [Example 81] | 496
COC(=O)[C@H](CCSC)NC(=O)N[C@@H](c1ccc(C(F)(F)F)cc1)c1ncccc1C(F)(F)F [Example 78, (S)-methyl 4-(methylthio)-2-(3-((S)-(4-(trifluoro-methyl)-phenyl)(3-(trifluoro-methyl)-pyridin-2-yl)-methyl)-ureido)-butanoate (2,2,2-trifluoro-acetate)] | 1230
O=C(NC(=O)Oc1ccccc1)N[C@@H](c1ccc(C(F)(F)F)cc1)c1ncccc1C(F)(F)F [Example 35, (S)-1-(phenyl-formate)-3-((4-(trifluoro-methyl)-phenyl)(3-(trifluoro-methyl)-pyridin-2-yl)-methyl)urea (2,2,2-trifluoro-acetate)] | 1710
COC(=O)[C@@H](NC(=O)N[C@@H](c1ccc(C(F)(F)F)cc1)c1ncccc1C(F)(F)F)C(C)C [Example 96, (S)-methyl 3-(methyl-2-(3-((S)-(4-(trifluoro-methyl)-phenyl)(3-(trifluoro-methyl)-pyridin-2-yl)-methyl)-ureido)-butanoate (2,2,2-trifluoro-acetate)] | 884
CC(C)(C)Cc1cccnc1[C@@H](NC(=O)Nc1cccnc1)c1ccc(C(F)(F)F)cc1 [Example 62] | 1930
CCc1cccc(C)c1NC(=O)N[C@@H](c1ccc(C(F)(F)F)cc1)c1ncccc1C(F)(F)F [Example 89, (S)-1-(2-ethyl-6-methylphenyl)-3-((4-(trifluoro-methyl)-phenyl)(3-(trifluoro-methyl)-pyridin-2-yl)-methyl)urea (2,2,2-trifluoro-acetate)] | 330
O=C(Nc1ccc2ncccc2c1)N[C@@H](c1ccc(C(F)(F)F)cc1)c1ncccc1C(F)(F)F [Example 58, (S)-1-(quinolin-6-yl)-3-((4-(trifluoro-methyl)-phenyl)(3-(trifluoro-methyl)-pyridin-2-yl)-methyl)urea] | 562
O=C(NCCCc1ccccc1)N[C@@H](c1ccc(C(F)(F)F)cc1)c1ncccc1C(F)(F)F [Example 34, (S)-1-(3-phenylpropyl)-3-((4-(trifluoro-methyl)-phenyl)(3-(trifluoro-methyl)-pyridin-2-yl)-methyl)urea (2,2,2-trifluoro-acetate)] | 127
CC(C)(C)NC(=O)N[C@@H](c1ccc(C(F)(F)F)cc1)c1ncccc1C(F)(F)F [Example 45, (S)-1-(tert-butyl)-3-((4-(trifluoro-methyl)-phenyl)(3-(trifluoro-methyl)-pyridin-2-yl)-methyl)urea] | 53
O=C(Nc1cccnc1)NC(c1cc(F)cc(Cl)c1)c1ncccc1C(F)(F)F (stereo not drawn) [Example 23, 1-((3-chloro-5-fluoro-phenyl)(3-(trifluoro-methyl)-pyridin-2-yl)-methyl)-3-(pyridin-3-yl)-urea (2,2,2-trifluoro-acetate)] | 255
Cc1ccc(C)c(NC(=O)N[C@@H](c2ccc(C(F)(F)F)cc2)c2ncccc2C(F)(F)F)c1 [Example 108] | 829
CC(C)(C)c1ccccc1NC(=O)N[C@@H](c1ccc(C(F)(F)F)cc1)c1ncccc1C(F)(F)F [Example 71, (S)-1-(tert-butylphenyl)-3-((4-(trifluoro-methyl)-phenyl)(3-(trifluoro-methyl)-pyridin-2-yl)-methyl)urea (2,2,2-trifluoro-acetate)] | 5710
O=C(Nc1cccnc1)N[C@@H](c1ccc(OC(F)(F)F)cc1)c1ncccc1F [Example 15, (S)-1-((3-fluoropyridin-2-yl)(4-(trifluoro-methoxy)-phenyl)-methyl)-3-(pyridin-3-yl)-urea] | 15
O=C(Nc1ccccc1)N[C@@H](c1ccc(C(F)(F)F)cc1)c1ncccc1C(F)(F)F [Example 31, (S)-1-phenyl-3-((4-(trifluoro-methyl)-phenyl)(3-(trifluoro-methyl)-pyridin-2-yl)-methyl)urea] | 81

Continued, values first:

IC50 [nM] | Compound
70 | C[C@@H](NC(=O)N[C@@H](c1ccc(C(F)(F)F)c(F)c1)c1ncccc1C(F)(F)F)C(F)(F)F [Example 152, 1-((S)-(3-fluoro-4-(trifluoro-methyl)-phenyl)(3-(trifluoro-methyl)-pyridin-2-yl)-methyl)-3-((R)-1,1,1-trifluoro-propan-2-yl)-urea (2,2,2-trifluoro-acetate)]
3770 | Cc1ccc(F)c(NC(=O)N[C@@H](c2ccc(C(F)(F)F)cc2)c2ncccc2C(F)(F)F)c1 [Example 146, (S)-1-(2-fluoro-5-methylphenyl)-3-((4-(trifluoro-methyl)-phenyl)(3-(trifluoro-methyl)-pyridin-2-yl)-methyl)urea (2,2,2-trifluoro-acetate)]
133 | CC(C)(C)NC(=O)N[C@@H](c1ccc(C(F)(F)F)cc1)c1ccccc1Br [Example 116, (S)-1-((2-bromophenyl) (4-(trifluoro-methyl)-phenyl)-methyl)-3-tert-butylurea]
48 | CC#Cc1cccnc1[C@@H](NC(=O)N[C@@H](C)C(F)(F)F)c1ccc(C(F)(F)F)cc1 [Example 150, 1-((S)-(3-(prop-1-yn-1-yl)pyridin-2-yl)(4-(trifluoro-methyl)-phenyl)-methyl)-3-((S)-1,1,1-trifluoro-propan-2-yl)-urea]
3240 | O=C(Nc1ccc(C(=O)O)cc1)N[C@@H](c1ccc(OC(F)(F)F)c(F)c1)c1ncccc1F [Example 180, (S)-4-(3-((3-Fluoro-4-(trifluoromethoxy)phenyl)(3-fluoropyridin-2-yl)methyl)ureido)benzoic acid]
541 | O=C(NCc1ccc(F)cc1)N[C@@H](c1ccc(C(F)(F)F)cc1)c1ncccc1C(F)(F)F [Example 144, (S)-1-(4-fluorobenzyl)-3-((4-(trifluoro-methyl)-phenyl)(3-(trifluoro-methyl)-pyridin-2-yl)-methyl)urea (2,2,2-trifluoro-acetate)]
1300 | Cc1ccc(NC(=O)N[C@@H](c2ccc(C(F)(F)F)cc2)c2ncccc2C(F)(F)F)cc1[N+](=O)[O-] [Example 140, (S)-1-(4-methyl-3-nitrophenyl)-3-((4-(trifluoro-methyl)-phenyl)(3-(trifluoro-methyl)-pyridin-2-yl)-methyl)urea (2,2,2-trifluoro-acetate)]
375 | O=C(Nc1cccnc1)N[C@@H](c1ccc(C(F)(F)F)cc1)c1cnccc1C(F)(F)F [Example 119, (S)-1-(pyridin-3-yl)-3-((4-(trifluoro-methyl)-phenyl)(4-(trifluoro-methyl)-pyridin-3-yl)-methyl)urea bis(2,2,2-trifluoro-acetate)]
583 | O=C(NCc1ccc(Cl)c(Cl)c1)N[C@@H](c1ccc(C(F)(F)F)cc1)c1ncccc1C(F)(F)F [Example 184, (S)-1-(3,4-dichlorobenzyl)-3-((4-(trifluoro-methyl)phenyl) (3-(trifluoro-methyl)pyridin-2-yl)methyl)urea (2,2,2-trifluoro-acetate)]
3210 | O=C(Nc1ccc(=O)[nH]c1)N[C@@H](c1ccc(C(F)(F)F)cc1)c1ncccc1F [Example 165, (S)-1-((3-fluoropyridin-2-yl)(4-(trifluoro-methyl)-phenyl)-methyl)-3-(6-oxo-1,6-dihydropyridin-3-yl)urea]
1310 | O=C(Nc1ccc(F)c([N+](=O)[O-])c1)N[C@@H](c1ccc(C(F)(F)F)cc1)c1ncccc1C(F)(F)F [Example 139, (S)-1-(4-fluoro-3-nitrophenyl)-3-((4-(trifluoro-methyl)-phenyl)(3-(trifluoro-methyl)-pyridin-2-yl)-methyl)urea (2,2,2-trifluoro-acetate)]
474 | Cc1ccccc1NC(=O)N[C@@H](c1ccc(C(F)(F)F)cc1)c1ncccc1C(F)(F)F [Example 145, (S)-1-(o-tolyl)-3-((4-(trifluoro-methyl)-phenyl)(3-(trifluoro-methyl)-pyridin-2-yl)-methyl)urea (2,2,2-trifluoro-acetate)]
221 | FC(F)(F)c1ccc([C@H](NC(=S)Nc2cccnc2)c2ncccc2C(F)(F)F)cc1 [Example 122, (S)-1-(pyridin-3-yl)-3-((4-(trifluoro-methyl)-phenyl)(3-(trifluoro-methyl)-pyridin-2-yl)-methyl)-thiourea]
